Test results taken from US20240245680A1, “Methods of Treating Retinal Vasculopathies” (Unity Biotechnology, Inc., priority 2021, published 2024).

Experiments:
[1] = system: ATF4 and DDIT3 gene expression in retina; assay: Retinal Atf4 and Ddit3 gene expression after IP dosing, normoxic and OIR neonatal mice; assay type: in vivo, mouse; settings: IP 10, 30 or 90 mpk at P12, 4 or 24 hours
Experimental: Compound 39 was tested in an animal model that shares many hallmarks with human ischemic retinopathies, the oxygen-induced retinopathy (OIR) neonatal mouse. To investigate the pharmacodynamic effect of Compound 39, it was intraperitoneally (IP) administered at either 10, 30, or 90 mpk. The dosing formulation was based on a vehicle comprising 1% Pluronic F-68/1% HPMC, 15% captisol. Both normoxic and OIR neonates were treated at P12 (the end of hyperoxia) and taken down after 4 hours, or 24 hours later at P13. Retinas were dissected, and RNA was extracted using a fully automated, spin-column-based nucleic acid extraction instrument (Qiacube Connect™). qPCR was performed using standard TaqMan® reagents and conditions. Atf4, Ddit3, and Tbp (control) gene expression was determined using primers: Mm00515324_m1, Mm00492097_m1, and Mm01277042_m1, respectively.

GCN2 = assay: DDIT3 gene expression (qPCR) in GCN2 knockout, PERK knockout and WT cells; assay type: cell-based; settings: GCN2 knockout, 250 nM, five hours, qPCR (FIG. 10D)
Experimental: To determine if DDIT3 activation by Compound 39 is dependent on GCN2 activation, rather than PERK, the following experiment was performed. GCN2 knockout cells (CRL-2978™), PERK knockout cells (CRL-2976™), or WT controls cells (ATCC CRL-2977™) were cultured to near confluency and treated for five hours with a fixed concentration (250 nM) of Compound 39. Following treatment, RNA was extracted using the RNeasy® 96-Kit (Qiagen), and cDNA was next generated using Superscript™ IV VILO™ Master Mix (Thermofisher®). qPCR was performed using standard TaqMan reagents and conditions. DDIT3 gene expression was detected using primer Hs00358796_g1 and Tbp was used as a control gene using primer (Hs99999910_m1).

[2] = system: ATF4 protein expression in retina; assay: Retinal ATF4 protein immunoblot after IP dosing, adult retinas; assay type: in vivo, mouse; settings: IP 30 and 60 mpk, adult retinas 4 hours post administration, immunoblot vs Actinin (FIG. 11C)
Experimental: Intraperitoneally administered Compound 39 activated ATF4 protein expression at 30 and 60 mpk. Adult eye retinas were dissected 4 hours post Compound 39 administration and the harvested samples were kept on ice and homogenized using Precellys™ (500 μL tubes) tissue homogenizer in 300 μL MSD Tris Lysis buffer containing Pierce Protease Inhibitor Complete Mini tablet (ThermoScientific™ A32963). Homogenized samples were then centrifuged to separate supernatant from debris. Lysates were separated by SDS-PAGE and immunoblotted for ATF4 (D4B8) and control protein Actinin (Cell Signaling, cat. 3134S).

**Q.** How did the “induction of ATF4 gene expression in retina” value ([1]; normoxic and OIR neonates (FIG. 11A)) turn out when `CNc1nc2ccc(-c3c(C)ccc(C(=O)c4c(-c5ccccc5)n(C)n(-c5ccccc5)c4=O)c3N)cc2s1` [Compound 39, 4-(2-Amino-4-methyl-3-(2-(methylamino)benzo[d]thiazol-6-yl)benzoyl)-1-methyl-2,5-diphenyl-1H-pyrazol-3(2H)-one] was run?
**A.** The value was “dose-dependent induction”.

**Q.** And the “induction of DDIT3 gene expression in retina” value ([1]; normoxic and OIR neonates (FIG. 11B))?
**A.** The value was “dose-dependent induction”.

**Q.** And the “dependence of DDIT3 induction on GCN2 or PERK” value (GCN2)?
**A.** Its value is “dependent on GCN2 but not PERK”.

**Q.** And the “levels of ATF4 protein in retina” value [2]?
**A.** The value was “increased”.
